Experimental data: PMC3326594 (Journal of Medicinal Chemistry, 2012)

Experiments:
P-gp = P-gp (Homo sapiens, UniProt P08183); settings: for LE (ligand efficiency): binding free energy from IC50 per heavy atom, 310 K; for LipE (lipophilic efficiency): from pIC50 and clogP (eq 5)
P-glycoprotein (P-gp) = P-glycoprotein (P-gp) (Homo sapiens, UniProt P08183); assay: Inhibition of daunorubicin efflux in multidrug resistant CCRF-CEM vcr 1000 cells; format: cell-based
hERG potassium channel = settings: hERG blockers from literature; cited from earlier work
[1] = pIC50 calcd, predicted from the clogP/pIC50 correlation line (Figure 2)

Sequence of P-gp (P08183 whole entry): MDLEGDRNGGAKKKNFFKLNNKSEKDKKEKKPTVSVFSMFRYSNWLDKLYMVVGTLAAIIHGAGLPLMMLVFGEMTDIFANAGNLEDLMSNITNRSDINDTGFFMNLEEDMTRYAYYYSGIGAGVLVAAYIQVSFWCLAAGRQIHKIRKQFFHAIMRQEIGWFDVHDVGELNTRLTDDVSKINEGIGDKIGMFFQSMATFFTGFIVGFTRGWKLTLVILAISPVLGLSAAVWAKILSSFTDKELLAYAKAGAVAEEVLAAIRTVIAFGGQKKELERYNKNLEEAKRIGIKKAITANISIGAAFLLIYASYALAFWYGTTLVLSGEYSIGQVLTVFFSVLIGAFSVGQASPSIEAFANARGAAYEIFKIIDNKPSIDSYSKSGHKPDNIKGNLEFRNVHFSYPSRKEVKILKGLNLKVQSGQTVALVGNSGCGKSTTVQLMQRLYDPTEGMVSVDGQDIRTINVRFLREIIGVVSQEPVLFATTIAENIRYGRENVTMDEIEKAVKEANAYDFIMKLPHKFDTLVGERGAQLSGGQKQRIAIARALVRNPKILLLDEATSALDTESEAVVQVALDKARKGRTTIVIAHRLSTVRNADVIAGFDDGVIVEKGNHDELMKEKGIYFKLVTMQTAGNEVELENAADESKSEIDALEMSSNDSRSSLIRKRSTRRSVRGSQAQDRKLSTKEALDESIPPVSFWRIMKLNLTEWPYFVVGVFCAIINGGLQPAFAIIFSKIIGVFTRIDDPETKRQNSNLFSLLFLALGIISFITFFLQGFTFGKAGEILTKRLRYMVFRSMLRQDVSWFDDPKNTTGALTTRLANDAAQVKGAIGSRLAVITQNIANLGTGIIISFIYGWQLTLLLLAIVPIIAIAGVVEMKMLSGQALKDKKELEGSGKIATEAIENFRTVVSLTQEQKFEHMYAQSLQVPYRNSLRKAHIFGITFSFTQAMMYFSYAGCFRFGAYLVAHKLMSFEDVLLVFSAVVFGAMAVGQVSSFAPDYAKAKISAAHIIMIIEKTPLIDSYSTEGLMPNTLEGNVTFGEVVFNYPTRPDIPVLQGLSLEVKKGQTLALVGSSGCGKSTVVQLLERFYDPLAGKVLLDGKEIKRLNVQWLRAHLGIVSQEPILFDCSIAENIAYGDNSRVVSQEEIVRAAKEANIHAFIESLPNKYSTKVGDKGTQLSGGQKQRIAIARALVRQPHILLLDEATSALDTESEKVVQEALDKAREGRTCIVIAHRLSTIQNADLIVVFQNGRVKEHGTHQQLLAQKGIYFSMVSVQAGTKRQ
Sequence of P-glycoprotein (P-gp) (P08183 whole entry): as above

## O=C(c1ccccc1)c1ccccc1OCC(O)CN1CCCCC1 (centres unmarked) [Compound 12]
P-gp
  LE (ligand efficiency): 0.33 kcal per heavy atom

## O=C(c1ccccc1)c1ccccc1OCC(O)CN1CCC(O)(c2ccccc2)CC1 (centres unmarked) [Compound 19]
P-glycoprotein (P-gp); [1]
  IC50: 1740 nM
P-glycoprotein (P-gp); pairwise comparison of IC50, 19 vs 20
  factor more active than equilipophilic compound 20: ~4 fold

## CCCNCC(O)COc1ccccc1C(=O)c1ccc(C)cc1 (centres unmarked) [Compound 20]
P-gp
  LE (ligand efficiency): 0.35 kcal per heavy atom

## O=C(c1ccccc1)c1ccccc1OCC(O)CN1CCN(CC(O)COc2ccccc2C(=O)c2ccccc2)CC1 (centres unmarked) [Compound 23]
P-gp
  LE (ligand efficiency): 0.23 kcal per heavy atom
P-glycoprotein (P-gp); [1]
  IC50: 794 nM
P-glycoprotein (P-gp); pIC50 obs, observed, daunorubicin efflux inhibition
  IC50: 53.7 nM
P-glycoprotein (P-gp); pairwise comparison of IC50, 23 vs 21
  more active than equilipophilic compound 21: about 1 order of magnitude

## CC(=O)c1cc(C)ccc1OCC(O)CN1CCN(CC(O)COc2ccccc2C(=O)c2ccccc2)CC1 (centres unmarked) [Compound 24, 1-[2-(3-{4-[3-(2-Benzoyl-phenoxy)-2-hydroxyl-propyl]-piperazine-1-yl}-2-hydroxy-propoxy)-5-methyl-phenyl]-ethanone]
P-gp
  LE (ligand efficiency): 0.18 kcal per heavy atom

## O=C(CCc1ccccc1)c1ccccc1OCC(O)CN1CCCCC1 (centres unmarked) [GPV005]
P-gp
  LE (ligand efficiency): 0.33 kcal per heavy atom
  LipE (lipophilic efficiency): 1.84

## O=C(CCc1ccccc1)c1ccccc1OCC(O)CN1CCC(O)(c2ccccc2)CC1 (centres unmarked) [GPV062]
P-gp
  LE (ligand efficiency): 0.30 kcal per heavy atom

## CCOC/C=C/c1ccc(-c2nc(-c3ccc(NC(C)C)cc3)c(-c3ccc(NC(C)C)cc3)[nH]2)cc1 [ONT093]
P-gp
  LE (ligand efficiency): 0.29 kcal per heavy atom
  LipE (lipophilic efficiency): 0.19

## COc1cc2c(cc1OC)CN(CCc1ccc(NC(=O)c3cc(OC)c(OC)cc3NC(=O)c3cnc4ccccc4c3)cc1)CC2 [Tariquidar]
P-gp
  LE (ligand efficiency): 0.22 kcal per heavy atom
  LipE (lipophilic efficiency): 1.93

## CN(CCOc1ccc(NS(C)(=O)=O)cc1)CCc1ccc(NS(C)(=O)=O)cc1 [dofetilide]
hERG potassium channel
  potency values: < 10 nM
